Patent publication US10517952B2, “Nucleophile-triggered degradable materials and methods of making and using the same” (GEORGIA TECH RESEARCH CORPORATION, priority 2014, dated 2019)
Several values for one entry are separate records, joined by “and”; a condition that tells them apart may be missing. Equal entries are not always repeated.

Experiments:
[1] = Residual hydrogel thiol content with fluorogenic OND probe S-6; format: physicochemical; settings: for Residual thiols in the gel network, average: average of both sets of gels from linkers 7a and 8, % of input macromer thiol content; for Gel Fraction % Residual Thiol: residual thiol in the gel, % of initial thiol content of input macromer; for Sol Fraction % Residual Thiol: thiol in supernatant, % of input thiol, swelled 18 hours at 4° C., pH 7.4 PBS, probe S-6
Experimental: The thiol content of cured hydrogels was determined by swelling gels in the presence of a small fluorogenic OND S-6, which we have previously described in our lab.
This probe reacts with thiols to produce a fluorescent adduct (FIG. 14A). […] Thus, the concentration of reagent S-6 in solution can be determined by quenching with thiol. Similarly, reagent S-6 can be used to quantify thiol in solution.
Based on cargo diffusion studies (see section X of this document), we expected that probe S-6 should easily permeate the hydrogel network under swelling conditions and react with accessible residual thiols present in the gel network. In order to test this hypothesis, 60 μL hydrogels were freshly prepared from 4-PEG-SH macromer and either linkers 8 or 7a as described in section III of this document. After curing for 20 minutes at room temperature, 3 mL of pH 7.4 0.1M PBS buffer containing 200 μM probe S-6 was added, and the gel was swelled at 4° C. for 18 hours. To account for hydrolytic degradation of our thiol probe during incubation, a sample was prepared with S-6 in buffer alone (lacking 4-PEG-SH and bis-OND linkers). After swelling, the gels were observed under long-wave ultraviolet light to reveal strongly fluorescent gels and weakly fluorescent supernatants (FIG. 15). […] Presumably the fluorescence in the supernatant of samples containing gels is due to soluble fraction of 4-PEG-SH macromer and oligomers not incorporated into the gel network.
In order to calculate the amount of residual thiol present in the soluble fraction, aliquots of the supernatant were removed and fluorescence was measured. Thiol content of the soluble fraction was determined by interpolation using the standard curve shown in FIG. 14 after accounting for fluorescence due to hydrolytic degradation. […] This amount corresponds well with the soluble fraction (soluble fraction=1−gel fraction) determined from swelling experiments (see Table 1 of main text). To determine residual thiol content present in gels, aliquots of the supernatant were quenched with a large excess (10 mM) of N-acetyl cysteine and the increase in fluorescence was measured to determine the amount of unreacted S-6 remaining in the supernatant. Accounting for the amount of probe already consumed by reaction with soluble fraction thiols and by hydrolytic degradation, the amount of residual thiol accessible for post-modification present in the gel was calculated as 13.4±1.4% and 10.8±2.4% of the initial thiol content of input macromer (average of 11.8±3.3 for both sets of gels prepared from linkers 7a and 8).

[2] = Equilibrium swelling, gel fraction and Mc (Flory-Rehner) of PEG-OND hydrogels; format: physicochemical; settings: for Mc (apparent molecular weight between elastic crosslinks): calculated with the Flory-Rehner equation from swelling results; for Gel Fraction: mass of dry residue post-swelling/input mass of OND and 4-PEG-SH; for Equilibrium Swelling Ratio: mass post-swelling/mass pre-swelling, deionized water, 4° C., 24 hours, n = 3 gels
Experimental: The swelling of the PEG-OND hydrogels in deionized water was measured at 4° C. to prevent significant fragmentation during the experiment. […] An independent experiment measuring soluble fraction thiol content yielded results complementing those obtained gravimetrically (Table S3, and related discussion below). With the knowledge that small molecules can readily permeate swollen PEG-OND hydrogels (see below), detecting and modifying residual thiols in gels prepared from divalent linkers 7a and 8 by swelling in the presence of a fluorogenic OND derivative was attempted (FIG. 15, and related discussion below).
200 μL gels were prepared in pH 7.4 100 mM phosphate buffered saline containing 7% DMSO with 3.5 wt % 4-PEG-SH and the corresponding bis-, tris-, and tetra-ONDs to provide a 1:1 thiol to electrophile ratio, and allowed to cure for 20 minutes at room temperature. The mass of the gels after curing was recorded (Meq) before suspending in 5.5 mL of water. The hydrogels were stored at 4° C. during swelling to prevent significant degradation of the network during the experiment. The increase in mass of the gels was monitored periodically by decanting and blotting the gel gently with a kimwipe to remove excess water before weighing. After 24 hours swelling, when swelling had stabilized, the mass of the gel was recorded (Meq). The equilibrium mass swelling ratio was then determined using the following relationship:
After weighing equilibrium-swelled gels to determine equilibrium mass swelling ratio, the gels were freeze-dried and the residual mass was weighed (Mres). It is expected that buffer salts present in the sample when it was formed were removed by the multiple changes of swelling solvent (pure water). The mass of the remaining residue was compared to the input mass (Min) of 4-PEG-SH macromer and OND-based linker. The ratio of the residual mass and the input mass provides the fraction of material by mass incorporated into the hydrogel network (gel fraction), as shown in the following equation: […]
The apparent molecular weight between elastically-productive crosslinks (Mc) was determined from equilibrium swelling data, collected as described in section VII.1 and applying a modified form of the Flory-Rehner equation for networks formed under dilute conditions:
[formula] where Mn is the number average molecular weight for the polymeric macromer (10,000 g/mol), v is the specific volume of the polymer ([…] for PEG) V1 is the molar volume of solvent used for swelling ([…] for water), χ is the polymer-interaction parameter (0.43 for PEG-H2O and assumed constant for the described experiments). V2, and V2, are the volume fraction of polymer in the equilibrium swollen gel and the relaxed gel after curing, respectively, and are calculated as follows:
[formula] where qw is the weight swelling ratio after equilibrium swelling, qF is the weight swelling ratio after curing, ρp is the density of the polymer (1.12 g/cm^3 for PEG), ρwater=ρcure solvent is the density of swelling solvent and solvent during gel formation (1.00 g/cm^3 for water). The weight swelling ratios qw and qF are determined from data gathered in equilibrium swelling experiments using the following relationships:
[formula] where ms is the mass of the gel after equilibrium swelling, mc is the mass of the gel after curing, and md is the mass of the dried gel, or input mass of polymer and crosslinkers.
Using the formulae above, masses of hydrogel samples recorded after equilibrium swelling, curing, and drying were applied to estimate the apparent molecular weight between crosslinks, which are summarized in Table 1 of the main text. The experimentally observed Mc values for gels formed using divalent OND linkers was lower than theoretical ideal value Mc,ideal. This can be explained by the fact that the Mc,ideal values calculated for these gels (entries 1-5 of Table S1) are greater than the entanglement molecular weight for polyethylene glycol (˜4,400 g/mol). […]

Row | Structure (SMILES) | melting point | Residual thiols in the gel network, average [1] | Gel Fraction % Residual Thiol [1] | Sol Fraction % Residual Thiol [1] | Mc (apparent molecular weight between elastic crosslinks) [2] | Gel Fraction [2] | Equilibrium Swelling Ratio [2]
1 | COC(=O)C1=C(C(=O)OC)C2(CNC(=O)CCCC(=O)NCC34C=CC(O3)C(C(=O)OC)=C4C(=O)OC)C=CC1O2 [Linker 7a, Tetramethyl 1,1′-((glutaroylbis(azanediyl))bis(methylene))bis(7-oxabicyclo[2.2.1]hepta-2,5-diene-2,3-dicarboxylate)] | 163 to 167 °C | 11.8±3.3% | 10.8±2.4% | 8.1±3.2% | 4080 ± 57 g/mol | 0.91 ± 0.03 | 1.7 ± 0.04
2 | COC(=O)C1=C(C(=O)OC)C2(CNC(=O)CCCC(=O)NCC34OC(C(C(=O)OC)=C3C(=O)OC)C3OC34)OC1C1OC12 (centres unmarked) [Linker 8, Tetramethyl 1,1′-((glutaroylbis(azanediyl))bis(methylene))bis(3,8-dioxatricyclo[3.2.1.0^2,4]oct-6-ene-6,7-dicarboxylate)] | 125 to 130 °C | 11.8±3.3% | 13.4±1.4% and 12.8 ± 2.2% | 2.1±0.4% | 3900 ± 93 g/mol | 0.97 ± 0.01 | 1.60 ± 0.10
